The results in this text go back to patent US11325899B2, “Benzofurane and benzothiophene derivatives as PGE2 receptor modulators” (IDORSIA PHARMACEUTICALS LTD, priority 2017, dated 2022).

Molecules are shown by their SMILES.

T1 sequence (P35408 whole entry): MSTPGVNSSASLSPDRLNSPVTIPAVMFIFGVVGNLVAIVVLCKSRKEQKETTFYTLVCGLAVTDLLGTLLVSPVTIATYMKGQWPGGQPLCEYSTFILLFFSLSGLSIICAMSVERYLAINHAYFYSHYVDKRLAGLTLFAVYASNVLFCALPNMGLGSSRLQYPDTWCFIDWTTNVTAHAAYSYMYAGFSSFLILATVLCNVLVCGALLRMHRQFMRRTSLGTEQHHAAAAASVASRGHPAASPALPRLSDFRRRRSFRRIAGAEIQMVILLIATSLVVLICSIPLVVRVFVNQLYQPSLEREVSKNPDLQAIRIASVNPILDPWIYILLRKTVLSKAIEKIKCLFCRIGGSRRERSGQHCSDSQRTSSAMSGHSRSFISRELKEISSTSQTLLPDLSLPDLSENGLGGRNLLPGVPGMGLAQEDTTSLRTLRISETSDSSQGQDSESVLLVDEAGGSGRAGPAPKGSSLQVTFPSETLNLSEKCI

This assay addresses T1, EP4 receptor (Homo sapiens, UniProt P35408).
T1 construct: BT549 breast cancer cells, express high endogenous EP4 levels and very low EP2 levels; host or cells: BT549 breast cancer cells
Briefly: hEP4 cAMP assay (BT549 breast cancer cells, HTRF cAMP, PGE2 stimulation). It counts as cell-based. Conditions: antagonistic activity, PGE2 6 nM (EC80). In short, it runs like this:
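BT549 cells, with endogenous EP4 and very low EP2, were preincubated 45 min at room temperature with compound in HBSS/HEPES/BSA buffer with 2 mM IBMX. They were then stimulated 30 min with 6 nM PGE2 (EC80). cAMP was measured by HTRF competitive immunoassay against a calibrator; IC50 from duplicate dose-response as % of DMSO control.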
Take `Cc1sc2c(C)cc(F)cc2c1CCNc1cc(-c2ccc(C(=O)O)c(OCCO)c2)ncn1` [Example 86, 4-{6-[2-(5-fluoro-2,7-dimethyl-benzo[b]thiophen-3-yl)-ethylamino]-pyrimidin-4-yl}-2-(2-hydroxy-ethoxy)-benzoic acid]: the IC50 was found to be 289 nM.
The compound `CCCSc1cc(-c2cc(NCCc3c(C)sc4c(C)cccc34)ncn2)ccc1C(=O)O` [Example 87, 4-{6-[2-(2,7-Dimethyl-benzo[b]thiophen-3-yl)-ethylamino]-pyrimidin-4-yl}-2-propylsulfanyl-benzoic acid] had an IC50 of 451 nM.
For `CCCSc1cc(-c2cc(NCCc3c(C)sc4ccccc34)ncn2)ccc1C(=O)O` [Example 88, 4-{6-[2-(2-Methyl-benzo[b]thiophen-3-yl)-ethylamino]-pyrimidin-4-yl}-2-propylsulfanyl-benzoic acid], the IC50 was 695 nM.
In the case of `CCCSc1cc(-c2cc(NCCc3c(C)oc4ccccc34)ncn2)ccc1C(=O)O` [Example 89, 4-{6-[2-(2-Methyl-benzofuran-3-yl)-ethylamino]-pyrimidin-4-yl}-2-propylsulfanyl-benzoic acid], the IC50 was determined as 1140 nM.
Regarding `Cc1sc2c(C)cccc2c1CCNc1cc(-c2ccc(C(=O)O)c(SC(C)C)c2)ncn1` [Example 90, 4-{6-[2-(2,7-Dimethyl-benzo[b]thiophen-3-yl)-ethylamino]-pyrimidin-4-yl}-2-isopropylsulfanyl-benzoic acid], the IC50 amounted to 338 nM.
As to `Cc1sc2ccccc2c1CCNc1cc(-c2ccc(C(=O)O)c(SC(C)C)c2)ncn1` [Example 91, 2-Isopropylsulfanyl-4-{6-[2-(2-methyl-benzo[b]thiophen-3-yl)-ethylamino]-pyrimidin-4-yl}-benzoic acid], the 50% inhibitory concentration (IC50) amounted to 539 nM.
With `Cc1oc2ccccc2c1CCNc1cc(-c2ccc(C(=O)O)c(SC(C)C)c2)ncn1` [Example 92, 2-Isopropylsulfanyl-4-{6-[2-(2-methyl-benzofuran-3-yl)-ethylamino]-pyrimidin-4-yl}-benzoic acid], the midpoint of inhibition, the IC50, lay at 672 nM.
In turn, `CCc1cc(-c2cc(NCCc3c(C)sc4c(C)cc(F)cc34)ncn2)cc(C)c1CC(=O)O` [Example 194, (2-Ethyl-4-{6-[2-(5-fluoro-2,7-dimethyl-benzo[b]thiophen-3-yl)-ethylamino]-pyrimidin-4-yl}-6-methyl-phenyl)-acetic acid] returned an IC50 of 71 nM.
`Cc1sc2c(C)cc(F)cc2c1CCNc1cc(-c2ccc(C(=O)O)c(OC3CC3)c2)ncn1` [Example 195, 2-Cyclopropoxy-4-{6-[2-(5-fluoro-2,7-dimethyl-benzo[b]thiophen-3-yl)-ethylamino]-pyrimidin-4-yl}-benzoic acid]: 48 nM corresponded to half-maximal inhibition (IC50).
`Cc1sc2c(C)cc(F)cc2c1CCNc1cc(-c2ccc(CC(=O)O)c(OC3CC3)c2)ncn1` [Example 196, (2-Cyclopropoxy-4-{6-[2-(5-fluoro-2,7-dimethyl-benzo[b]thiophen-3-yl)-ethylamino]-pyrimidin-4-yl}-phenyl)-acetic acid] yielded an IC50 of 100 nM.
In turn, `CCOc1cc(-c2cc(NCCc3c(C)sc4c(C)cc(F)cc34)ncn2)ccc1-c1cc(O)no1` [Example 202, 5-(2-Ethoxy-4-{6-[2-(5-fluoro-2,7-dimethyl-benzo[b]thiophen-3-yl)-ethylamino]-pyrimidin-4-yl}-phenyl)-isoxazol-3-ol [tautomeric form: 5-(2-ethoxy-4-(6-((2-(5-fluoro-2,7-dimethylbenzo[b]thiophen-3-yl)ethyl)amino)pyrimidin-4-yl)phenyl)isoxazol-3(2H)-one]] showed an IC50 of 297 nM.
